Test systems include A498; SN12C; HT-29; SR; ACHN; SF-539; SF-268; OVCAR-5; OVCAR-8; OVCAR-3; UACC-257; SF-295; IGROV-1; UO-31; LOX IMVI; HCT-15; OVCAR-4; HOP-62; M14.
Common to all, as to test: NCI tumour cell line growth inhibition, 48 h

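1) Cells in 96-well plates. 2) Compound, 48 h, 5 concentrations. 3) Linear interpolation between surrounding doses. 4) Unreached endpoint = highest concentration. Abbreviation: GI50, concentration required for 50% inhibition of growth.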 The source made the active and inactive calls. No stated cut-off is given here; in the data, active = GI50 up to about 1.1 µM and inactive = higher.

As for `O=[N+]([O-])c1cc(C2SCc3nc4ccccc4n32)ccc1Cl` (centres undefined), the GI50 is 18.1 µM (inactive) in the assay on A498; 12 µM (inactive) in the assay with SN12C; 30.8 µM (inactive) in the assay on HT-29; 30.2 µM (inactive) with SR; 27.5 µM (inactive) in the assay on ACHN; 27.8 µM (inactive) in the assay with SF-539. Also, the GI50 is 20.7 µM (inactive) in the assay with SF-268; 14.3 µM (inactive) in the assay with OVCAR-5; 30.3 µM (inactive) in the assay with OVCAR-8; 25.3 µM (inactive) in the assay with OVCAR-3; 22.3 µM (inactive) with UACC-257; 38 µM (inactive) in the assay with SF-295. Also, the GI50 in the assay with IGROV-1 is 45.9 µM (inactive); in the assay on UO-31, 18.5 µM (inactive).
Regarding `Cc1ccc(C(=O)CCC2C(=O)CC(C)(C)CC2=O)cc1`, the GI50 is > 100 µM (inactive) in the assay with SN12C; > 100 µM (inactive) with HT-29; 15.7 µM (inactive) in the assay on SR; > 100 µM (inactive) with ACHN; > 100 µM (inactive) with SF-539; > 100 µM (inactive) with SF-268. For the same molecule, the GI50 in the assay on OVCAR-5 was > 100 µM (inactive); in the assay on OVCAR-8, > 100 µM (inactive); in the assay on LOX IMVI, > 100 µM (inactive); in the assay on HCT-15 it was over 100 µM; in the assay with OVCAR-3, > 100 µM (inactive); in the assay on OVCAR-4, > 100 µM (inactive). The GI50 in the assay with UACC-257, with SF-295, with HOP-62, with IGROV-1, with M14 and with UO-31 was > 100 µM (inactive) throughout.
Consider `C=CCOC(=O)N1c2ccc(O)cc2[C@@]23O[C@@]24[C@@H]1C#C/C=C\C#C[C@]3(O)C(=O)C[C@@H]4C`, for which the GI50 is 42.8 µM (inactive) in the assay on A498; 54.2 µM (inactive) in the assay on SN12C; 43.5 µM (inactive) with HT-29; 15 µM (inactive) with SR; 28.2 µM (inactive) in the assay with ACHN; 83.8 µM (inactive) with SF-539. Also, the GI50 was 79.1 µM (inactive) in the assay with SF-268; 28.2 µM (inactive) with OVCAR-5; 47.1 µM (inactive) with OVCAR-8; over 100 µM in the assay with HCT-15; 0.0231 µM (active) in the assay on OVCAR-4; > 100 µM (inactive) in the assay on UACC-257. The GI50 is > 100 µM (inactive) in the assay on SF-295; > 100 µM (inactive) with HOP-62; 62.8 µM (inactive) with IGROV-1; 39.7 µM (inactive) with M14; 54.3 µM (inactive) with UO-31.
Regarding `COc1ccc(CNc2nc(NCc3ccc(OC)cc3)nc(NC3CCCC3)n2)cc1`, the GI50 was > 19.8 µM (inactive) in the assay with SN12C; 3.04 µM (inactive) in the assay on HT-29; 2.67 µM (inactive) with SR; 4.47 µM (inactive) in the assay on ACHN; 2.75 µM (inactive) in the assay on SF-539; 7.18 µM (inactive) in the assay with SF-268. Also, the GI50 is 3.63 µM (inactive) in the assay with OVCAR-5; 4.06 µM (inactive) in the assay with OVCAR-8; 5.78 µM (inactive) in the assay with LOX IMVI; 3.19 µM in the assay with HCT-15; 2.76 µM (inactive) in the assay on OVCAR-3; > 25.4 µM (inactive) in the assay with OVCAR-4. Also, the GI50 with UACC-257 is 12 µM (inactive); in the assay on SF-295, 2.18 µM (inactive); in the assay on HOP-62, 3.07 µM (inactive); in the assay on IGROV-1 it was 13.4 µM (inactive); with M14, 2.91 µM (inactive); with UO-31, 6.43 µM (inactive).
Consider `Cc1cn(C(CO)OC(CO)CN(O)C2C3CC4CC(C3)CC2C4)c(=O)[nH]c1=O` (centres undefined), for which the GI50 in the assay with A498, with SN12C, in the assay with HT-29, with SR, in the assay on ACHN and with SF-539 was > 100 µM (inactive) each time. The GI50 in the assay on SF-268 is > 100 µM (inactive); with OVCAR-5, > 100 µM (inactive); in the assay on OVCAR-8, > 100 µM (inactive); with HCT-15, over 100 µM; in the assay on OVCAR-4, > 100 µM (inactive); in the assay on UACC-257, > 100 µM (inactive). Besides, the GI50 in the assay with SF-295, in the assay with HOP-62, in the assay on IGROV-1, with M14 and in the assay with UO-31 was > 100 µM (inactive) each time.
